pEC50: −log10 of the molar value. *1 amine or outer side, *2 acyl side, *3 side chain or, on linkers, in order; H or OH if unused. Where a SMILES comes first, the peptide text is derived from it. Bridges are numbered along the chain shown (N, C = ends). [ ]: non-standard residue; d: D form. dPhe(4-F) = N[C@H](Cc1ccc(F)cc1)C(=O)O; NH(CH2)4NH = C(CCN[*:2])CN[*:1]; Nle = CCCC[C@H](N)C(=O)O
Legend:
MC1r (HBL) = target: T1, MC1r (HBL) (Homo sapiens, UniProt Q01726); assay: cAMP agonist functional assay, native MC1r in HBL cells; type: cell-based
T1 construct: B16-F10 (mouse) and HBL (human) cell lines that express native MC1 r; endogenous in cells; host or cells: HBL (human) cell line
Protocol: (§1) Accumulation of intracellular cAMP was examined as a measure of the ability of the peptides to elicit a functional response in either HEK-293 cells that express recombinant MC3r or MC4r or B16-F10 (mouse) and HBL (human) cell lines that express native MC1 r. Confluent cells were detached from culture plates by incubation in enzyme-free cell dissociation buffer. Dispersed cells were suspended in Hank's Balanced Salt Solution containing 10 mM HEPES (pH 7.5), 1 mM MgCl2, 1 mM glutamine, 0.5% albumin and 0.3 mM 3-isobutyl-1-methyl-xanthine (IBMX), a phosphodiesterase inhibitor. The cells were dispensed into 96-well plates at a density of 0.5×10^5 cells per well and pre-incubated for 10 minutes. Cells were exposed for 15 minutes at 37° C. to peptides dissolved in DMSO (final DMSO concentration of 1%) at a concentration range of 0.05-5000 nM in a total assay volume of 200 μL. […] Data analysis was performed by nonlinear regression analysis with Graph-Pad Prism® software.

MC3r = target: T2, MC3r (Homo sapiens, UniProt P41968); assay: cAMP agonist functional assay, recombinant MC3r in HEK-293 cells; type: cell-based
T2 construct: expressed in transfected cells; host or cells: HEK-293
Protocol: as §1

MC5r [1] = target: T3, MC5r (Homo sapiens, UniProt P33032); assay: CEREP agonist assay, cAMP production by HTRF, MC5 in CHO-K1 cells; type: cell-based
Protocol: Evaluation of the agonist activity of compounds at the melanocortin receptors was determined by measuring their effects on cAMP production using the HTRF detection method at CEREP (Eurofins CEREP SA, Celle-Levescault, France). The cells were suspended in HBSS buffer (Invitrogen) complemented with 20 mM HEPES (pH 7.4) and 500 μM IBMX, then distributed in microplates and incubated in the presence of HBSS (basal control), the test compound or the reference agonist. Incubation time, temperature, cell number, reference agonist and cell line information are included in the Table 1 below. For stimulated control measurement, separate assay wells contain reference compound. Following incubation, the cells are lysed and the fluorescence acceptor (D2-labeled cAMP) and fluorescence donor (anti-cAMP antibody labeled with europium cryptate) were added. After 60 minutes at room temperature, the fluorescence transfer was measured at excitation wavelength 337 nm and emission wavelengths 620 and 665 nm using a microplate reader (Envision, Perkin Elmer). The cAMP concentration was determined by dividing the signal measured at 665 nm by that measured at 620 nm (ratio).
The results are expressed as a percent of the control response to 1 μM of the reference. The standard reference agonist is tested in each experiment at several concentrations to generate a concentration-response curve from which its EC50 value is calculated.
Target sequence in this assay (P33032 whole entry): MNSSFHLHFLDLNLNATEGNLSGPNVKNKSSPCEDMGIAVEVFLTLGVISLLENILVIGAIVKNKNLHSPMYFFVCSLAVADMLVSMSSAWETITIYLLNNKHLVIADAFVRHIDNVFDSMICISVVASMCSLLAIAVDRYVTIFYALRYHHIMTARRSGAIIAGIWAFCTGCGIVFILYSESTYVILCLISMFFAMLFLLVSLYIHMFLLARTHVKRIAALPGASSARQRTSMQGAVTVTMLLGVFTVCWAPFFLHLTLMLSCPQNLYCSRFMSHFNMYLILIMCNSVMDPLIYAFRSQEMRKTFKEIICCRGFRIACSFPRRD

MC5r [2] = target: T3, MC5r; assay: cAMP agonist functional assay at MC5r (not CEREP); type: cell-based
Target sequence in this assay (P33032 whole entry, species assumed): as the sequence (P33032 whole entry) above

[3] = test system: adult subjects with mild, moderate or severe dry eye disease; assay: Phase 2 placebo-controlled study in dry eye disease, Controlled Adverse Environment; type: in vivo, human
Excerpt: Peptide No. 60 was utilized in the ophthalmologic solution drug product of Example 9.3 in a multi-center, double-masked, randomized, placebo-controlled, parallel-arm, Phase 2 study, which enrolled approximately 160 subjects (80 subjects per treatment arm). The objective of this study was to compare the safety and efficacy of Peptide No. 60 to its vehicle from Day 1 (baseline) to Day 85 (Week 12) in adult subjects with mild, moderate or severe dry eye disease in a Controlled Adverse Environment (CAE) setting. Both signs and symptoms were assessed at periodic visits.
During the screening period, two 90-minute exposures to the CAE were conducted to ascertain eligibility to enter the study. Subjects who qualify were randomized to receive study drug or placebo in a double-masked fashion for 12 weeks. Subjects self-administered drops three times per day (TID) and completed daily diary assessments as instructed.
At Visits 3 (Day 15, Week 2), 4 (Day 29, Week 4), 5 (Day 57, Week 8), and 6 (Day 85, Week 12), subjects were exposed to a CAE, with pre-CAE, during CAE (symptoms only) and post-CAE assessments of ocular signs and symptoms.

MC1r (B16/F10) = target: T4, MC1r (B16/F10) (Mus musculus, UniProt Q01727); assay: cAMP agonist functional assay, native MC1r in B16-F10 cells; type: cell-based
T4 construct: B16-F10 (mouse) and HBL (human) cell lines that express native MC1 r; endogenous in cells; host or cells: B16-F10 (mouse) cell line
Protocol: as §1

male C57BL/6JRj mice = assay: Chronic dry-eye disease mouse model (desiccating environment plus scopolamine), corneal fluorescein staining; type: in vivo; details: for corneal fluorescein staining compared with untreated eyes: Day 24, after 12 days topical treatment
Protocol: To determine efficacy of peptide No. 60 for moderate, chronic dry-eye disease, male C57BL/6JRj mice were exposed to a controlled desiccating environment with transdermal administration of scopolamine (SiccaSystem™) to establish disease prior to any treatment. Corneal fluorescein staining was performed on study Days 10 and 12 (prior to treatment) and Day 24 (after 12 days of topical treatment with test compounds). Animals were randomized into 6 different experimental groups (n=12 for each treatment group, n=7 for untreated eyes) based on the fluorescein score on Day 12. Treatment arms included untreated and vehicle-treated animals and animals receiving Peptide No. 60 (3 different concentrations, 10^−2, 10^−3, and 10^−4 mg/mL) or the reference compound cyclosporin ophthalmic emulsion, sold under the trade name Restasis®.

MC4r = target: T5, MC4r (Homo sapiens, UniProt P32245); assay: cAMP agonist functional assay, recombinant MC4r in HEK-293 cells; type: cell-based
T5 construct: expressed in transfected cells; host or cells: HEK-293
Protocol: as §1

[4] = Ocular tissue distribution after dosing to the eye, mouse model; type: in vivo; details: at both 4 and 24 hours after dosing to the eye
Protocol: Peptide No. 60 was evaluated in several stability and pharmacokinetic models.

T2 sequence (P41968 whole entry, species assumed): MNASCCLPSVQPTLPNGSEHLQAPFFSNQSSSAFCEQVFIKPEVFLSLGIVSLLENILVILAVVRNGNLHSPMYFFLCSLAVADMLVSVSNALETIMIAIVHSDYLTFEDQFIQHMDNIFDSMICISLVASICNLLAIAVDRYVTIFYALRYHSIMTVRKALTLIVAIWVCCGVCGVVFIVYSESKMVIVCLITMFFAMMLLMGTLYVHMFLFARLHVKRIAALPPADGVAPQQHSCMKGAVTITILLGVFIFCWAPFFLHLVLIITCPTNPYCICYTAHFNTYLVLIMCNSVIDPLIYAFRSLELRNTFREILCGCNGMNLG
T4 sequence (Q01727 whole entry): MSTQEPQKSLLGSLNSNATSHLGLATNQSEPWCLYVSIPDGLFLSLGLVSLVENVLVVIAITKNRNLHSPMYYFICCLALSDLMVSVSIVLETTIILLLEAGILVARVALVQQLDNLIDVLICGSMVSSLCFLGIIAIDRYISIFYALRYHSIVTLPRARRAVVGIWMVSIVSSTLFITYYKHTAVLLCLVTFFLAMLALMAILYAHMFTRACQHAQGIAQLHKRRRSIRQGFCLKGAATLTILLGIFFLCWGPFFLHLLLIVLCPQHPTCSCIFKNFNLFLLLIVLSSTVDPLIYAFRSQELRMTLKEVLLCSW
T1 sequence (Q01726 whole entry): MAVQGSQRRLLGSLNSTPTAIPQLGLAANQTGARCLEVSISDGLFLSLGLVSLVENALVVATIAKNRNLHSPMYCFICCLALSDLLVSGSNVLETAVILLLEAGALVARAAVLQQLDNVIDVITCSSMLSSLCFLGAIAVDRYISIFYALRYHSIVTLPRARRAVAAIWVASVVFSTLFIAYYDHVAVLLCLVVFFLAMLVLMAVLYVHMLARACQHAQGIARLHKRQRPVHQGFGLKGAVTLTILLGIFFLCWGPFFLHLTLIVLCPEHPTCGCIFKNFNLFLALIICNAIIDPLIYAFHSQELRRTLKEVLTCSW
T5 sequence (P32245 whole entry): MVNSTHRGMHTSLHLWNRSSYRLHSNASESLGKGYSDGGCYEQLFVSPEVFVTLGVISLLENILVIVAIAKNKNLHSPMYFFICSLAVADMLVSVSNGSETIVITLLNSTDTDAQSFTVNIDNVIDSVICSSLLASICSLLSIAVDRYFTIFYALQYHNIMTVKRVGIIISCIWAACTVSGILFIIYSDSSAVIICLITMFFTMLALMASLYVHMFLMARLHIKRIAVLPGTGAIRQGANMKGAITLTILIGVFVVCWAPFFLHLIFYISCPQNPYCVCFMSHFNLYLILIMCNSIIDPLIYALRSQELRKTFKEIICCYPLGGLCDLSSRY

pEC50 (MC1r (HBL); MC1r (HBL)): 9.89 | Fold Peptide No. 60 More Potent Than Bremelanotide (MC1r (HBL); MC1r (HBL)): 0.78X | Fold Peptide No. 60 More Potent Than α-MSH (MC1r (HBL); MC1r (HBL)): 69X | potency compared to bremelanotide (in words) (MC1r (HBL); at MC1r): approximately equal potency | potency compared to α-MSH (in words) (MC1r (HBL); at MC1r): greater relative potency | pEC50 (MC3r; MC3r): 9.11 | Fold Peptide No. 60 More Potent Than Bremelanotide (MC3r; MC3r): 4X | Fold Peptide No. 60 More Potent Than α-MSH (MC3r; MC3r): 3.9X | potency compared to α-MSH (in words) (MC3r; at MC3r): roughly comparable | pEC50 (MC5r [1]): 9.41 | Fold Peptide No. 60 More Potent Than Bremelanotide (MC5r [1]): >25,000X (CEREP) | Fold Peptide No. 60 More Potent Than α-MSH (MC5r [1]): 930X (CEREP) | pEC50 (MC5r [2]; MC5r): 9.82 | Fold Peptide No. 60 More Potent Than Bremelanotide (MC5r [2]; MC5r): 22,500X | Fold Peptide No. 60 More Potent Than α-MSH (MC5r [2]; MC5r): 686X | potency compared to α-MSH (in words) (MC5r [2]; at MC5r): greater relative potency | pEC50 (MC1r (B16/F10)): 10.70 | Fold Peptide No. 60 More Potent Than Bremelanotide (MC1r (B16/F10)): 5X | Fold Peptide No. 60 More Potent Than α-MSH (MC1r (B16/F10)): 11X | pEC50 (MC4r; MC4r): 8.70 | Fold Peptide No. 60 More Potent Than Bremelanotide (MC4r; MC4r): 0.5X | Fold Peptide No. 60 More Potent Than α-MSH (MC4r; MC4r): 1.5X | potency compared to α-MSH (in words) (MC4r; at MC4r): roughly comparable
SMILES: CCCC[C@H](NC(C)=O)C(=O)N[C@H]1CCC(=O)NCCCCNC(=O)[C@H](Cc2c[nH]c3ccccc23)NC(=O)[C@H](CCCNC(=N)N)NC(=O)[C@@H](Cc2ccc(F)cc2)NC(=O)[C@H](Cc2c[nH]cn2)NC1=O [Peptide No. 60, Ac-Nle-cyclo(Glu-His-D-Phe(4-F)-Arg-Trp-NH—(CH2)4—NH)] (Ac-[Nle]EH[dPhe(4-F)]RW; linker 2-C via NH(CH2)4NH)
ocular, drug-related adverse events ([3]; Phase 2 study): no ocular, drug-related adverse events | serious adverse events associated with study treatment ([3]; Phase 2 study): no serious adverse events associated with study treatment observed | patients discontinued from the study ([3]; not deemed to be drug related): one | corneal fluorescein staining compared with untreated eyes (male C57BL/6JRj mice; 10^−2 mg/ml, P<0.05, Dunn's multiple comparisons test): statistically significant lower corneal fluorescein staining | corneal fluorescein staining compared with untreated eyes (male C57BL/6JRj mice; 10^−3 mg/ml, P<0.01, Dunn's multiple comparisons test): statistically significant lower corneal fluorescein staining | corneal fluorescein staining compared with untreated eyes (male C57BL/6JRj mice; 10^−4 mg/ml, P<0.01, Dunn's multiple comparisons test): statistically significant lower corneal fluorescein staining | corneal fluorescein staining/scores, Day 12 compared with Day 24 for the same eye (male C57BL/6JRj mice; doses between 10^−2 and 10^−4 mg/mL, topical): statistically significantly improvement of corneal fluorescein scores | presence in ocular tissues [4]: found in both the conjunctiva and lacrimal gland
